Data from ChEMBL document CHEMBL3632504, “Discovery of 1H-pyrazolo[3,4-b]pyridines as potent dual orexin receptor antagonists (DORAs)” (Bioorg Med Chem Lett, 2015).
Values after ≈ are worked out from the molar mass of the structure shown.

How the values were obtained:
Blood [1] = assay: Dose-normalized AUC in mouse blood at 3 mg/kg, po administered through cassette dosing; assay type: ADME, organism-based; details: in vivo
[2] = Blood clearance in mouse at 1 mg/kg, iv administered through cassette dosing; assay type: ADME, organism-based
[3] = Intrinsic clearance in mouse liver microsomes; assay type: ADME; details: read-out: CLH
Cytochrome P450 2D6 = Cytochrome P450 2D6 (Homo sapiens, UniProt P10635); assay: Inhibition of CYP2D6 (unknown origin); assay type: ADME
Cytochrome P450 2C9 = Cytochrome P450 2C9 (Homo sapiens, UniProt P11712); assay: Inhibition of CYP2C9 (unknown origin); assay type: ADME
[4] = Plasma protein binding in mouse; assay type: ADME; details: read-out: PPB
[5] = Intrinsic clearance in rat liver microsomes; assay type: ADME; details: read-out: CLH
[6] = Equilibrium solubility of the compound at pH 6.8; assay type: physicochemical; details: buffer
[7] = Intrinsic clearance in human liver microsomes; assay type: ADME; details: read-out: CLH
[8] = Volume of distribution at steady state in mouse at 1 mg/kg, iv administered through cassette dosing; assay type: ADME, organism-based; details: in vivo, read-out: Vdss
Blood [9] = assay: Dose-normalized Cmax in mouse blood at 3 mg/kg, po administered through cassette dosing; assay type: ADME, organism-based; details: in vivo
[10] = Plasma protein binding in human; assay type: ADME, cell-free; details: read-out: PPB (converted)
[11] = Permeability of the compound by PAMPA; assay type: physicochemical
[12] = Terminal half life in mouse at 1 mg/kg, iv administered through cassette dosing; assay type: ADME, organism-based; details: in vivo, read-out: beta t1/2 (converted)
Cytochrome P450 3A4 = Cytochrome P450 3A4 (Homo sapiens, UniProt P08684); assay: Inhibition of CYP3A4 (unknown origin); assay type: ADME
Plasma = assay: Fraction unbound in mouse plasma; assay type: ADME, cell-free
[13] = Octanol/water partition coefficient, logP of the compound; assay type: physicochemical
[14] = Oral bioavailability in mouse at 3 mg/kg administered through cassette dosing; assay type: ADME, organism-based; details: in vivo
Homo sapiens = organism: Homo sapiens; assay: Selectivity ratio of Ki for human orexin 1 receptor to Ki for human orexin 2 receptor
in vivo = details: mouse, brain / blood, po, 3 mg/kg
Description: Ratio of drug level in brain to blood in mouse at 3 mg/kg, po at 1 hr post dose administered through cassette dosing

Orexin receptor type 2 [15] = biological target: T1, Orexin receptor type 2 (Homo sapiens, UniProt O43614); assay: Antagonist activity against human orexin 2 receptor after 1 hr by Ca2+ sensitive Fluo4-AM fluorescent dye-based FLIPR assay; assay type: functional
T1 sequence (O43614 whole entry): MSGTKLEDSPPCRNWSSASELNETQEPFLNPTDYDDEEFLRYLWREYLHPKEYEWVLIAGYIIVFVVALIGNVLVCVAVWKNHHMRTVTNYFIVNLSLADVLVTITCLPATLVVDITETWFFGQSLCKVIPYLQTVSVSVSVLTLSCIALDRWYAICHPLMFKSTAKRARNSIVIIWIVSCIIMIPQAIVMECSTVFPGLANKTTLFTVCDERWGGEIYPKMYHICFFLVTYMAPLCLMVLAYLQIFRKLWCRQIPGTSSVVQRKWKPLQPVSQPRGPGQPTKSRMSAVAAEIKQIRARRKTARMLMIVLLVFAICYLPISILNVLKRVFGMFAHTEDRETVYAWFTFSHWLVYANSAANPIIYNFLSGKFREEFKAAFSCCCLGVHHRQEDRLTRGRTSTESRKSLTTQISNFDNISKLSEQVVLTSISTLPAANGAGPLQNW

[16] = biological target: T2, Orexin/Hypocretin receptor type 1 (Homo sapiens, UniProt O43613)
T2 sequence (O43613 whole entry): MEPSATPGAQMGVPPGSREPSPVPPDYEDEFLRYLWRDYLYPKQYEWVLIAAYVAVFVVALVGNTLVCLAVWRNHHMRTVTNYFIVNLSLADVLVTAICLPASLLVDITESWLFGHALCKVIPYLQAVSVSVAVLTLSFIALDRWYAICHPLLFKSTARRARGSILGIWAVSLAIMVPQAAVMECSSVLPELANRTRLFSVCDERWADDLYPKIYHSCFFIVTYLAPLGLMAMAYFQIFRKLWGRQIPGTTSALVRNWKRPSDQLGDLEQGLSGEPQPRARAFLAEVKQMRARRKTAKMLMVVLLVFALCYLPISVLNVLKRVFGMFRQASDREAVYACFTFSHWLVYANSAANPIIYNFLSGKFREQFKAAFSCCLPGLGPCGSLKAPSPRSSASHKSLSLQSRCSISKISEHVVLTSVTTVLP
Description: Antagonist activity against human orexin 1 receptor after 1 hr by Ca2+ sensitive Fluo4-AM fluorescent dye-based FLIPR assay

[17] = biological target: T2, Orexin/Hypocretin receptor type 1; assay: Displacement of [125l]orexin A from human orexin 1 receptor expressed in CHO cells after 1 hr; assay type: cell-based
MDR1 = assay: Efflux ratio of permeability from basolateral to apical side over apical to basolateral side in MDCK cells expressing MDR1; assay type: ADME, cell-based, Canis lupus familiaris; details: dog
Orexin receptor type 2 [18] = biological target: T1, Orexin receptor type 2; assay: Displacement of [125l]orexin A from human orexin 2 receptor expressed in CHO cells after 1 hr; assay type: cell-based
[19] = biological target: Voltage-gated inwardly rectifying potassium channel KCNH2 (Homo sapiens, UniProt Q12809); assay: Binding affinity to human ERG
[20] = Drug metabolism in mouse liver microsomes assessed as oxidation at benzylic position of amide; assay type: ADME
Mus musculus [21] = organism: Mus musculus; assay: Drug metabolism in mouse assessed as oxidation at benzylic position of amide; assay type: ADME, organism-based; details: in vivo
Mus musculus [22] = organism: Mus musculus; assay: Drug metabolism in mouse assessed as oxidation at phenyl ring in 3-position of core moiety; assay type: ADME, organism-based; details: in vivo
Liver microsome [23] = assay: Drug metabolism in human liver microsomes assessed as oxidation at benzylic position of amide; assay type: ADME
Liver microsome [24] = assay: Drug metabolism in human liver microsomes assessed as oxidation at phenyl ring in 3-position of core moiety; assay type: ADME
[25] = Drug metabolism in mouse liver microsomes assessed as oxidation at phenyl ring in 3-position of core moiety; assay type: ADME

Chain of Cytochrome P450 2D6 (P10635 whole entry): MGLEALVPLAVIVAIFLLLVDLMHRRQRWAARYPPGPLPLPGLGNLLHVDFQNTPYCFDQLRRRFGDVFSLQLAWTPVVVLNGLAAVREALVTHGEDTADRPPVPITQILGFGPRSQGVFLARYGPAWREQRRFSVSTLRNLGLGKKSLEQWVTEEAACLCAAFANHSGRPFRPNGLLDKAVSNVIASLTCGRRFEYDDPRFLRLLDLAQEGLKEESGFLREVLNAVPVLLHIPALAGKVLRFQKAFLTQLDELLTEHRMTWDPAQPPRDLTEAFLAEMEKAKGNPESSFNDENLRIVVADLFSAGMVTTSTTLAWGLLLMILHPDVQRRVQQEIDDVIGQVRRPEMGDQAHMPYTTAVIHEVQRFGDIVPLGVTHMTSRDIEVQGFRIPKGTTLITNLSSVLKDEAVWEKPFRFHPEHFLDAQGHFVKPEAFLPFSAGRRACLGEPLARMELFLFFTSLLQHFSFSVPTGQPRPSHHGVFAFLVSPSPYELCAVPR
Chain of Cytochrome P450 2C9 (P11712 whole entry): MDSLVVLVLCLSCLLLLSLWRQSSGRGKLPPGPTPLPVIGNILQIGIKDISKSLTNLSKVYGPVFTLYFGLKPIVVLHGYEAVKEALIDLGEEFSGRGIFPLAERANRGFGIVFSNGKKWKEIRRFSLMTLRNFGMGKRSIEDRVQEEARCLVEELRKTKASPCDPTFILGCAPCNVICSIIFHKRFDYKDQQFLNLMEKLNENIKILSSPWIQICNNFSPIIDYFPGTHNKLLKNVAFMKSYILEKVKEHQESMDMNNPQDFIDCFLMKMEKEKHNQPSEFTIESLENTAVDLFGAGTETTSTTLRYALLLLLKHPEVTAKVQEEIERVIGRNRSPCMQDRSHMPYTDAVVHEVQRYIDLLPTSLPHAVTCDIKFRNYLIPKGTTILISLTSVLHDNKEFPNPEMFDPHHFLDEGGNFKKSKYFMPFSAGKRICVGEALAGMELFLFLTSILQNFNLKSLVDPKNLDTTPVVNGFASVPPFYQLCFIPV
Chain of Cytochrome P450 3A4 (P08684 whole entry): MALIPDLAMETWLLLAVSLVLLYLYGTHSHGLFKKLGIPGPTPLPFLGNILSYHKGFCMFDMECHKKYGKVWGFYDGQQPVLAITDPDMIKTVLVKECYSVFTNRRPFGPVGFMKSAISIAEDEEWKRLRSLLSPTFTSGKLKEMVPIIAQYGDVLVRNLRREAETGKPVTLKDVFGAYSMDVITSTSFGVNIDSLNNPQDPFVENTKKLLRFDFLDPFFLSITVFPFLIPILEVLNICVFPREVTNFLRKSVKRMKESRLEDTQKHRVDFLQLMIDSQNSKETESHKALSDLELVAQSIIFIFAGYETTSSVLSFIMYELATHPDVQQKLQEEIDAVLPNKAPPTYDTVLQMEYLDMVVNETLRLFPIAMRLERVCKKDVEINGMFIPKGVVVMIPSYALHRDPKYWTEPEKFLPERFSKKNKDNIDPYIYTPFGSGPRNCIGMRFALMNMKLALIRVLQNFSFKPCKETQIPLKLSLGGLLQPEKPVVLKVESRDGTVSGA
Chain of Voltage-gated inwardly rectifying potassium channel KCNH2 (Q12809 whole entry): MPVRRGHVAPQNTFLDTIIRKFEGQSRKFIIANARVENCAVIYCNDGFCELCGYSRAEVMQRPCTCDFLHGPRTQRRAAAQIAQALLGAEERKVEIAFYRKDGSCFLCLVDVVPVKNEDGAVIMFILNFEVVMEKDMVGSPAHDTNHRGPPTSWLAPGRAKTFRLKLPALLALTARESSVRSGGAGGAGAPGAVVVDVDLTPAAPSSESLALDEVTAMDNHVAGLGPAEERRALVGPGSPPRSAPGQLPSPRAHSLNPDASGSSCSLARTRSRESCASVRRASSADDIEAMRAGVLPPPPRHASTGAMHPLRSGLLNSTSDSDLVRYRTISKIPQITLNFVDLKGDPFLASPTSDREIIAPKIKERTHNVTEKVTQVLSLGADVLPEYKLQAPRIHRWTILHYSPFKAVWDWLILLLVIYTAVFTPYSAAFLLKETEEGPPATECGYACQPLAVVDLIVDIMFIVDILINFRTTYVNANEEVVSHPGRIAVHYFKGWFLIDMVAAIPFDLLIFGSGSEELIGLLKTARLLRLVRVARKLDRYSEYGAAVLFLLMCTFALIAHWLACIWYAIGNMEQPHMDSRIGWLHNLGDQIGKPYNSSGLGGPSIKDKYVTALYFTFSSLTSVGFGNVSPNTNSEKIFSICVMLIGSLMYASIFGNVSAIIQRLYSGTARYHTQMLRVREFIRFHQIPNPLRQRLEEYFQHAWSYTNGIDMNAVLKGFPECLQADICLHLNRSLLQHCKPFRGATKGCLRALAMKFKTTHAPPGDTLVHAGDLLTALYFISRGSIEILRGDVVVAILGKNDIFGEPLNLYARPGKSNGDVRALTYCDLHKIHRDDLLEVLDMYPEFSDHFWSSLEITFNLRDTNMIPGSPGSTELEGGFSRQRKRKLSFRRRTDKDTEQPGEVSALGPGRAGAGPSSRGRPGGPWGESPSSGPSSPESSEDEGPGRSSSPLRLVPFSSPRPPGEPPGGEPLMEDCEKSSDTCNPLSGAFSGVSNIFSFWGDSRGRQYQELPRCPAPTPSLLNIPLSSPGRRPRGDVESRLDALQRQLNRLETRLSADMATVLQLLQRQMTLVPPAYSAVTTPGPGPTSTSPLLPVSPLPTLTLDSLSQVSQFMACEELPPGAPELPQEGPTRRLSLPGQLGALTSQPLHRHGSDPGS

Cc1n[nH]c(C)c1[C@H](C)NC(=O)COc1cc(C(F)(F)F)c2c(-c3ccccc3)nn(C)c2n1
AUC/dose (Blood [1]): 371 nM·h
clearance [2]: 1.2 L/h/kg
microsomal CLint [3]: 330 µL/min/mg
IC50 (Cytochrome P450 2D6): > 20 µM
IC50 (Cytochrome P450 2C9): > 20 µM
fraction unbound [4]: < 0.01
microsomal CLint [5]: 603 µL/min/mg
solubility thermodynamic [6]: < 4 µM
microsomal CLint [7]: 433 µL/min/mg
Vd [8]: 0.5 L/kg
Cmax/dose (Blood [9]): 0.3 µM
fraction unbound [10]: 0.04
log(permeability) [11]: -4.1
half-life [12]: 30 min
IC50 (Cytochrome P450 3A4): > 20 µM
Fu (Plasma): < 1%
logP [13]: 4.2
bioavailability [14]: 21%

C[C@H](NC(=O)CNc1cc(C(F)(F)F)c2c(-c3ccccc3)nn(C)c2n1)c1ccccc1
Ratio Ki (Homo sapiens): 0.31

Cc1ccc2c(n1)CC[C@@H]2NC(=O)COc1cc(C)c2c(C3CC3)nn(C)c2n1
AUC/dose (Blood [1]): 106 nM·h
clearance [2]: 3.96 L/h/kg
Vd [8]: 0.4 L/kg
Cmax/dose (Blood [9]): 0.115 µM
Ratio Ki (Homo sapiens): 4.95
half-life [12]: 18 min
Kp at 1 h (in vivo): 0.13
bioavailability [14]: 16%

CC(NC(=O)COc1cc(C(F)(F)F)c2c(-c3ccccc3)nn(C)c2n1)c1ccccn1 (racemic)
Ki (Orexin receptor type 2 [15]): Not Active

COc1ccc(CNC(=O)COc2cc(C(F)(F)F)c3c(-c4ccccc4)nn(C)c3n2)cc1
Ratio Ki (Homo sapiens): 9.64

Cc1ccc([C@H](C)NC(=O)COc2cc(C)c3c(-c4ncccn4)nn(C)c3n2)cc1
Ki (Orexin receptor type 2 [15]; read-out: Ki): 0.005 µM
solubility thermodynamic [6]: 43 µM (≈ 17.9 µg/mL)
logP [13]: 3.3

Cc1nn(C)c(C)c1[C@H](C)NC(=O)COc1cc(C(F)(F)F)c2c(-c3ccccc3)nn(C)c2n1
Ki (Orexin receptor type 2 [15]; read-out: Ki): 0.01 µM
Ki [16]: 0.007 µM
Ratio Ki (Homo sapiens): 0.7

COc1ccc([C@@H](C)NC(=O)COc2cc(C(F)(F)F)c3c(-c4ccccc4)nn(C)c3n2)cc1
Ratio Ki (Homo sapiens): 2.41

Cc1cc2c(cn1)[C@@H](NC(=O)COc1cc(C)c3c(C4CC4)nn(C)c3n1)CC2
microsomal CLint [5]: 924 µL/min/mg
solubility thermodynamic [6]: 25 µM (≈ 9.79 µg/mL)
logP [13]: 3.5

COc1cccc(C(C)NC(=O)COc2cc(C(F)(F)F)c3c(-c4ccccc4)nn(C)c3n2)c1 (racemic)
Ratio Ki (Homo sapiens): 0.77

COc1ccc([C@H](C)NC(=O)COc2cc(C(F)(F)F)c3c(-c4ccccc4)nn(C)c3n2)cc1
Ki [17]: 0.008 µM
AUC/dose (Blood [1]): 17 nM·h
clearance [2]: 3.9 L/h/kg
microsomal CLint [3]: 478 µL/min/mg
IC50 (Cytochrome P450 2D6): > 20 µM
IC50 (Cytochrome P450 2C9): 5 µM
fraction unbound [4]: < 0.01
efflux ratio (MDR1): 1
microsomal CLint [5]: 147 µL/min/mg
Ki (Orexin receptor type 2 [18]): 0.004 µM
solubility thermodynamic [6]: < 4 µM
microsomal CLint [7]: 190 µL/min/mg
IC50 [19]: > 30 µM
Vd [8]: 2 L/kg
Cmax/dose (Blood [9]): 0.004 µM
fraction unbound [10]: < 0.01
Ratio Ki (Homo sapiens): 7
log(permeability) [11]: -4
half-life [12]: 66 min
IC50 (Cytochrome P450 3A4): 8 µM
Fu (Plasma): < 1%
logP [13]: 4.6
Kp at 1 h (in vivo): 1.15
bioavailability [14]: 3%

Cc1nn(C)c(C)c1C(C)NC(=O)COc1cc(C(F)F)c2c(C3CC3)nn(C)c2n1 (racemic)
microsomal CLint [5]: 660 µL/min/mg
solubility thermodynamic [6]: 657 µM (≈ 284 µg/mL)
logP [13]: 2.8

Cc1nn(C)c(C)c1C(C)NC(=O)COc1cc(C(F)F)c2c(-c3ccccc3)nn(C)c2n1 (racemic)
solubility thermodynamic [6]: 248 µM (≈ 116 µg/mL)
logP [13]: 3.9

COc1ccccc1C(C)NC(=O)COc1cc(C(F)(F)F)c2c(-c3ccccc3)nn(C)c2n1 (racemic)
Ratio Ki (Homo sapiens): 1.73

Cc1ccc([C@H](C)NC(=O)COc2cc(C)c3c(-c4cnccn4)nn(C)c3n2)cc1
solubility thermodynamic [6]: 115 µM (≈ 47.9 µg/mL)
logP [13]: 3.9

C[C@H](NC(=O)COc1cc(C(F)(F)F)c2c(-c3ccccn3)nn(C)c2n1)c1ccccc1
microsomal CLint [5]: 924 µL/min/mg
Ki (Orexin receptor type 2 [15]; read-out: Ki): 0.367 µM
solubility thermodynamic [6]: 40 µM (≈ 18.2 µg/mL)
Ki [16]: 0.66 µM
logP [13]: 3.5

COc1ccc(C(C)NC(=O)COc2cc(C(F)(F)F)c3c(-c4ccccc4)nn(C)c3n2)cc1 (racemic)
Ratio Ki (Homo sapiens): 14.5

CC(NC(=O)COc1cc(C(F)(F)F)c2c(-c3ccccc3)nn(C)c2n1)c1ccccc1 (racemic)
Ki [17]: 0.088 µM
Ki (Orexin receptor type 2 [15]; read-out: Ki): 0.078 µM
Ki (Orexin receptor type 2 [18]): 0.168 µM
Ki [16]: 0.12 µM
Ratio Ki (Homo sapiens): 1.54

CC(NC(=O)COc1cc(C(F)(F)F)c2c(-c3ccccc3)nn(C)c2n1)c1cccnc1 (racemic)
Ratio Ki (Homo sapiens): 1.67

C[C@H](NC(=O)COc1cc(C(F)(F)F)c2c(-c3ccccc3)nn(C)c2n1)c1ccccc1
Drug metabolism [20]: metabolite_detected
Drug metabolism (Mus musculus [21]): metabolite_detected
Drug metabolism (Mus musculus [22]): metabolite_detected
Drug metabolism (Liver microsome [23]): metabolite_detected
solubility thermodynamic [6]: < 4 µM
Ratio Ki (Homo sapiens): 1.62
Drug metabolism (Liver microsome [24]): metabolite_detected
logP [13]: 4.7
Drug metabolism [25]: metabolite_detected

C[C@H](NC(=O)COc1cc(C(F)(F)F)c2c(-c3ccccc3)n[nH]c2n1)c1ccccc1
Ratio Ki (Homo sapiens): 4.65
